Data published in patent publication US7842324B2 (Senomyx, Inc., priority 2005, dated 2010).

Columns and labels:
[1] = test system: tasters; assay: Reduced sugar frosted breakfast cereal sensory evaluation; assay type: in vivo, human; settings: for Avgage Sweet Intensity Score: scale 1 to 10
Protocol: A 100 gram sample of a solid sweetener concentrate composition was prepared from 1.000 g of compound 23 and 99.000 g of 10 D.E. maltodextrin. “DE” i.e. “[…]” is a measure of the degree of depolymerization of the corn starches used to manufacture maltodextrins. Fifty grams of the maltodextrin was placed on the bottom of a clean and dried mortar and the 1.000 gr of compound 23 was added to the maltodextrin and slowly ground and mixed into the maltodextrin. The remaining 50 grams of maltodextrin was added to a planetary mixer with a wire whip attachment (KITCHEN AIDE™ Mixer), then the contents of the mortar were placed into the mixer and the mixer was turned on to a slow speed (setting 3), and allowed to mix for 10 minutes. A rubber spatula was used to scrap the walls and bottom of the bowl, then the mixture was blended on low for another 15 minutes. The 100× diluted solid sweetener concentrate composition was stored in an air tight amber glass container. The contents were mixed in the glass container before taking out aliquots of the dry diluted sweet enhancer.
Using the KITCHEN AIDE™ Mixer with the wire whip attachment, the granulated sugar, powdered sugar, gum arabic, dextrin, and the 1:100 diluted sweetener concentrate composition were mixed at speed 3. Water and the HFCS were placed into a 1000 mL stainless steel cylinder and mixed using a LIGHTNIN™ Mixer at 500 to 650 rpms using a 2.5 inch (6.35 cm) impeller with three straight blades until the HFCS was dissolved (5 minutes). A vortex was created by positioning the impeller blades at a 30 to 45° angle. The dry/sugar/gum dry blend was added to the vortex very slowly and allowed to mix until the sugar dissolved and the gum rehydrated. An additional 10 minute mixing time was allowed after the last of the dry blend was added, to form the frosting. […]
Frosted corn flake cereal samples were evaluated using a rank rating design by tasters. […]

[2] = test system: tasters; assay: Reduced sugar soda syrup (strawberry soda) sensory evaluation; assay type: in vivo, human; settings: scale 1 to 10
Protocol: 1000.00 g of the ⅔ sugared syrup comprising compound 23 was formulated in the following manner. Compound 23 was diluted with maltodextrin (1:100) to make a sweetener concentrate composition for addition to the soda syrup formulation. An alternative method is to make a solution of amide compound in propylene glycol that can be added directly into the liquid soda syrup formulation. A 100 g batch of dry sweetener concentrate composition was produced by weighing 1.000 g of the enhancer and 99.0000 g of 10 D.E. maltodextrin. 50 g of the maltodextrin was placed on the bottom of a clean and dried mortar and the 1.0000 g of amide compound was added and slowly mixed into the maltodextrin. In a planetary mixer with a wire whip attachment (KITCHEN AIDE™ Mixer), the rest of the maltodextrin was added to the mixing bowl, and the contents of the mortar was placed into the mixer and the mixer was turned on to a slow speed (setting 3). A rubber spatula was used to remove the contents of the mortar and the contents were allowed to mix for an additional 10 minutes. A rubber spatula was used to scrap the walls and bottom of the bowl. The mixture was blended on low for another 15 minutes. The […] sweetener concentrate composition was stored in an air tight amber glass container. […]

CC(C)CNC(=O)C(C)(C)c1ccc(-c2cncc(C#N)c2)cc1 [Compound 23, 2-(4-(5-cyanopyridin-3-yl)phenyl)-N-isobutyl-2-methylpropanamide]
sweetness compared with fully sugar frosted cornflake control ([1]; 9.6 ppm in frosting): almost as much sweetness as the fully sugar frosted cornflake control
Avgage Sweet Intensity Score ([1]; ⅔ sugared frosted corn flakes + 6.6 ppm): 7.5
Avgage Sweet Intensity Score ([1]; ⅔ sugared frosted corn flakes + 9.6 ppm): 7.81
Average Sweet Intensity Score ([2]; ⅔ sugared with HFCS strawberry soda + 1.0 ppm): 6.429
Average Sweet Intensity Score ([2]; ⅔ sugared with HFCS strawberry soda + 1.3 ppm): 7.214
